Data reported in patent publication US12071469B2, “Peptide compounds for suppressing inflammation” (Duke University, priority 2011, dated 2024).
Values joined by “and” are separate entries in the source; they are usually repeats but may differ in a detail not shown here. Equal entries are not always repeated.

Key:
[1] = system: mice with traumatic brain injury; test: Morris water maze neurocognitive performance after traumatic brain injury; type: in vivo, mouse; details: 0.05 mg/kg or 0.2 mg/kg iv at 2 h and 6 h after traumatic brain injury; days 28-31 post-injury; FIG. 4
Experimental: An experimental murine model for traumatic brain injury was developed. Laskowitz, et al. (2010) J. Neurotrauma, 27:1983-95. Male mice (age 12-14 weeks) were anesthetized with 4.3% isoflurane in oxygen in an anesthesia induction box for 90 seconds. The trachea was intubated and the lungs mechanically ventilated with 1.4% isoflurane in a 50/50 mixture of oxygen and nitrogen. Body temperature was maintained at 37° C. using surface heating/cooling. The top of the skull was exposed by a midline incision to identify anatomical landmarks, and a concave 3-mm metallic disc was secured to the skull surface with an adhesive, directly midline and just caudal to the bregma. […]
Another experimental procedure for measuring neurological deficits was developed using a Morris water maze. […] Latency to finding the platform and swimming speed were recorded using a computerized video tracking system (Ethovision 2.2.14; available from Noldus Information Technology, Leesburg VA).
Groups of mice received either an ApoE mimetic peptide (SEQ ID NO:4; 0.05 mg/kg) or carrier (saline) by intravenous tail vein injection at 2 hours and again at 6 hours after traumatic brain injury induced as described in Example 3. Each mouse was tested for vestibulomotor function by rotorod latency measured before and after injury, as described in Example 3. […]

[2] = Mouse brain PK of VSRRR (CNS penetration) by LC/MS; type: in vivo; details: for Brain Pilot, Ratio to Heavy / Brain Pilot, fmol/mg (tissue) / Brain Pilot, pg/mg (tissue): individual mouse brains, single-point internal standard quantitation; for Single-Dosed Brain PK, fmol analyte/mg tissue / Single-Dosed Brain PK, pg/mg of tissue: single dose 0.8 mg/kg, average of 5 animals
Experimental: Mouse Brain PK on Therapeutic Peptide, VSRRR—Sample Preparation Procedure
Mice brains were weighed in a 1.5 mL Eppendorf tube. The entire brain was transferred to a 14 mL culture tube. 1 mL of 8 M urea in 50 mM ammonium formate (pH 10) with 2.5 pmol/mL SIL peptide per 100 mg wet tissue weight was added. For standard controls and QCs, 10 μL of peptide standard per every 100 mg of brain tissue (1%) was added with 990 μL of the aforementioned buffer to bring to a 1 mL total volume for every 100 mg of tissue. A tissue tearor was used on each sample for about 20 sec. 1.5 mL of the sample was transferred to a 2-mL Eppendorf tube. Each sample was probe sonicated for 3 bursts of 5 sec per burst. The sample was then heated at 37° C. for 30 min. The sample was centrifuged for 30 min at 15,000 rpm. Very little precipitate was visible at the bottom of each tube and avoided when pipetting 1 mL of the sample (out of 1.5 mL total volume) and placing directly onto an OASIS® plate. Salts and proteins were removed using the OASIS® HLB Solid Phase Extraction (SPE) protocol described above for the plasma sample. After the extraction, the samples were dried down in a Speed Vac and reconstitute in 25 μL of 1% ACN/0.1% TFA/0.02% HFBA. 3 μL of the sample was injected into a SYNAPT™ G2 HDMS™ (Waters Corp.) using Full Scan MS method, with a run time of 16.5 min total. Peptide(s) of interest were monitored between 3-8 min.
Table 5 and FIG. 10 show the average amount of peptide in the CNS sample from 5 animals over time after a single dosing of 0.8 mg/kg of the peptide.
The analyte concentrations were calculated from a single-point internal standard quantitation. […] The analyte concentrations were calculated from a 7-point standard curve calibration curve equation generated with samples between 1.4 pg analyte/mg tissue and 89.2 pg/mg (2× serial dilutions). The inter-animal reproducibility for the brain analyses is high ([…] 21% CV). The drug molecule in the single-dosed brain Cmax is about 9 pg analyte/mg tissue.

For Ac-VSRRR-NH2 [VR-55, Ac-VSRRR-NH2], the “neurocognitive outcomes (Morris water maze latency)” value [1] was “improved neurocognitive outcomes”, the “Brain Pilot, Ratio to Heavy” value ([2]; 3 min) was 0.245 and 0.371 and the “Brain Pilot, fmol/mg (tissue)” value ([2]; 3 min) was 15 fmol/mg (tissue) and 23 fmol/mg (tissue). For the same substance, the “Brain Pilot, pg/mg (tissue)” value ([2]; 3 min) was 11 pg/mg (tissue) and 17 pg/mg (tissue), the “Brain Pilot, Ratio to Heavy” value ([2]; 10 min) was 0.157 and 0.435 and the “Brain Pilot, fmol/mg (tissue)” value ([2]; 10 min) was 10 fmol/mg (tissue) and 27 fmol/mg (tissue). For the same substance, the “Brain Pilot, pg/mg (tissue)” value ([2]; 10 min) was 7 pg/mg (tissue) and 19 pg/mg (tissue), the “single-dosed brain Cmax” value ([2]; mouse brain, single dose) was “about 9 pg analyte/mg tissue” and the “Single-Dosed Brain PK, fmol analyte/mg tissue” value ([2]; mouse brain, 1 min) was 10.91 fmol analyte/mg tissue. For the same substance, the “Single-Dosed Brain PK, pg/mg of tissue” value ([2]; mouse brain, 1 min) was 7.79 pg/mg of tissue, the “Single-Dosed Brain PK, fmol analyte/mg tissue” value ([2]; mouse brain, 3 min) was 12.30 fmol analyte/mg tissue and the “Single-Dosed Brain PK, pg/mg of tissue” value ([2]; mouse brain, 3 min) was 8.79 pg/mg of tissue. For the same substance, the “Single-Dosed Brain PK, fmol analyte/mg tissue” value ([2]; mouse brain, 5 min) was 11.26 fmol analyte/mg tissue, the “Single-Dosed Brain PK, pg/mg of tissue” value ([2]; mouse brain, 5 min) was 8.04 pg/mg of tissue and the “Single-Dosed Brain PK, fmol analyte/mg tissue” value ([2]; mouse brain, 10 min) was 11.83 fmol analyte/mg tissue. For the same substance, the “Single-Dosed Brain PK, pg/mg of tissue” value ([2]; mouse brain, 10 min) was 8.44 pg/mg of tissue, the “Single-Dosed Brain PK, fmol analyte/mg tissue” value ([2]; mouse brain, 15 min) was 10.56 fmol analyte/mg tissue and the “Single-Dosed Brain PK, pg/mg of tissue” value ([2]; mouse brain, 15 min) was 7.54 pg/mg of tissue. The “Single-Dosed Brain PK, fmol analyte/mg tissue” value ([2]; mouse brain, 30 min) was 8.87 fmol analyte/mg tissue, the “Single-Dosed Brain PK, pg/mg of tissue” value ([2]; mouse brain, 30 min) was 6.33 pg/mg of tissue and the “Single-Dosed Brain PK, fmol analyte/mg tissue” value ([2]; mouse brain, 60 min) was 7.64 fmol analyte/mg tissue. The “Single-Dosed Brain PK, pg/mg of tissue” value ([2]; mouse brain, 60 min) was 5.46 pg/mg of tissue and the CNS penetration ([2]; preliminary data, brain pilot) was “CNS penetration”.
